Assay results reported in patent US7695971B2, “Use of non-absorbable fat in determining dietary fat absorption” (Children's Hospital Medical Center, priority 2003, dated 2010).
Values belong to the compound of their own block, whether it stands above or below them.

Assays:
[1] = Fat absorption by sucrose behenate marker method, mice (Example 1)
Description: (§1) These two diets further have the following composition by weight: about 16% fat, 45% non-fat dry milk, and 39% sucrose, providing 30:15:55 fat:protein:carbohydrate energy %. Non-fat dry milk comprised 60% carbohydrate and 40% protein by weight. The fat composition (% by weight) is given for each diet as listed below. […] Aliquots of approximately 10 microliters of each fat blend are set aside and later analyzed for fatty acid analysis. The fat blends are added to non-fat dry milk and sucrose and mixed with an electric mixer for 5 minutes. The prepared diets are placed in a capped glass bottle and stored at 4° C. until used.
(§2) The feeding and fecal collection regimen for rodents includes two days of test diet and three days of fecal collection. Prior to the study, the animals eat commercial chow ad libitum. Test diets, also fed ad libitum, replace chow on days 0 and 1, and chow is returned to the animals on day 2. Fecal collections are made on days 1, 2, and 3. The feeding and feces collection regimen is illustrated in the following table A:
(§3) In general sample sizes of 10-20 milligrams provide a 5 to 10-fold excess of behenate in terms of the sensitivity of the gas chromatograph. The weighed fecal sample is ground into small particles with a spatula and placed in a 20 mL vial for saponification, methylation, and extraction. The method for saponification and methylation of fatty acids for gas chromatographic analysis can be that reported by Mecalfe (Metcalfe, L D et al. (1966). Anal. Chem. 38: 514-515). Four mL of 0.5N methanolic sodium hydroxide are added to the vial, which is then heated in a water bath at ˜80° C. for 5 mins. After a brief cooling period, 3 mL of BF3 in methanol (14% borontrifluoride and 86% methanol) are added to methylate the sample. After another five minutes of heating in the waterbath, the sample vial is allowed to cool to allow handling. Two mL of a saturated solution of sodium chloride and 10 mL of hexane are added to the vial. The samples are then mixed with a vortex mixer for one minute. Centrifugation can be used (2500 rpm at 1 min) to expedite the process of separation into two layers. The hexane fraction is transferred by pipette into a 20 mL vial that contains ˜10 mg of sodium sulfate to dry the sample. The hexane solution is removed for gas chromatograph analysis. An injection volume of 1 μL of the 10 mL of hexane is analyzed.
Samples are analyzed with a gas chromatograph (GC) such as a Shimadzu GC-17A equipped with autosampler and autoinjector. Analysis of fatty acid methyl esters is then based on areas calculated with Shimadzu Class VP 4.3 software. An example of an appropriate column is one that can be obtained from J&W Scientific, DB-23 (123-2332): 30 m (length), I.D. (mm) 0.32 widebore, film thickness of […], although any suitable column can be substituted. Fatty acid identification is made by the use of comparison of retention times with those of authenticated standards. The conditions for the GC analysis in the present example are: Column temperature ramping by holding at 120° C. for one minute followed by an increase of 5° C./min from 120-240° C. The temperature of the injector and flame ionization detector is 250° C. A split (8:1) injection mode is used. The carrier gas is helium with a column flow rate of 2.5 mL/min. Under these conditions, the retention time of methyl behenate is 18.7 min.
The absorption of fatty acids is calculated with formula II:
[formula] • where Fd=sum of the masses of all dietary fatty acids (or that of an individual fatty acid) other than behenic acid, • Bd=mass of dietary behenic acid, • Ff=sum of the mass of all fecal fatty acids (or that of an individual fatty acid) other than behenic acid, and • Bf=mass of fecal behenic acid.

[2] = Fat absorption by sucrose behenate marker method, rats (Example 2)
Description: as §1, §2, §3
Samples are analyzed with a gas chromatograph (GC) such as a Shimadzu GC-17A equipped with autosampler and autoinjector. Analysis of fatty acid methyl esters is then based on areas calculated with Shimadzu Class VP 4.3 software. […]
The absorption of fatty acids is calculated with formula II: […]

Compound: CCCCCCCCCCCCCCCCCCCCCC(=O)O [behenic acid, reference compound]
behenic acid in feces, of the total fatty acids ([1]; mice fed Safflower Oil Diet): 33.5-66.4%
behenic acid in feces, of the fatty acids ([1]; mice fed Safflower Oil and Olestra Diet): 12.5-19.3%

Compound: CCCCCCCC/C=C\CCCCCCCC(=O)O [oleic]
Percent in Feces (Mean ± SEM) ([1]; fecal samples from mice ingesting Safflower Oil and Olestra Diet): 24.7 ± 01.0%
absorption of individual fatty acid from safflower oil (in words) ([1]; mice, Safflower Oil Diet): nearly complete
absorption of individual fatty acid from safflower oil ([2]; rats, fecal collections of days 2 and 3): 90.9±0.5%

Further lines, results first:

Percent in Feces (Mean ± SEM) ([1]; male, C57B1/6, mouse, in vivo): 18.3 ± 0.5%
absorption of individual fatty acid from safflower oil ([2]; rat, in vivo): 90.1±0.3%
Compound: CCCCCCCCCCCCCCCC(=O)O [Palmitic acid]

Percent in Feces (Mean ± SEM) ([1]; male, C57B1/6, mouse, in vivo): 5.28 ± 0.3%
absorption of individual fatty acid ([1]; male, C57B1/6, mouse, in vivo): 77.3±2.1%
absorption of individual fatty acid from safflower oil ([2]; rat, in vivo): 75.9±0.3%
Compound: CCCCCCCCCCCCCCCCCC(=O)O [Stearic acid]

Percent in Feces (Mean ± SEM) ([1]; male, C57B1/6, mouse, in vivo): 27.7 ± .6%
absorption of individual fatty acid from safflower oil (in words) ([1]; mouse, in vivo): nearly complete
absorption of individual fatty acid from safflower oil (in words) ([2]; rat, in vivo): essentially complete
Compound: CCCCC/C=C\C/C=C\CCCCCCCC(=O)O [linoleic acid]
